{"source": "patent US6326526A", "about": "“Melatonin receptor-deficient mice and uses thereof” (Bristol-Myers Squibb Company, priority 2000, dated 2001)", "key": {"[1]": {"system": "rat SCN single-unit activity rhythm", "settings": "rats; read-out: EC50 of phase-shifting effect on the single-unit activity rhythm; cited from earlier work"}, "[2]": {"system": "SCN slices from wild-type mice (multiunit activity)", "assay": "SCN multiunit recordings, melatonin-induced inhibition of neuronal firing, wild-type mice", "format": "cell-based, mouse", "method": "(§1) Adult male wild-type and homozygous mutant mice were housed in LD 12:12 for a minimum of three weeks prior to experimentation. After the adaptation period, the mice were killed 2.0 to 4.5 hours after lights-on, and brains were rapidly dissected and placed into ACSF medium containing 116.3 mM NaCl, 5,4 mM KCl, 1.0 mM NaH2 PO4, 26.2 mM NaHCO3, 1.8 mM CaCl2, 0.8 mM MgSO4, 24.6 mM dextrose, and 5 mg/l Gentamicin sulphate, pH 7.5. A block of tissue containing the hypothalamus was dissected from the brain and transferred to a manual tissue chopper where coronal hypothalamic brain slices (400 μm in thickness) containing the SCN were prepared. Slices were placed in a Haas-type brain slice chamber (Haas H. L., et al., J. Neurosci. Methods 1:323-325, 1979; Medical Systems Corp.) and gauze strips placed over the slices in the vicinity of the SCN to raise the fluid level above the slices. They were continually superfused with ACSF medium warmed to 37° C. To record multiple-unit SCN electrical activity, a 76 μm-diameter, teflon-coated platinum-iridium wire electrode was lowered into the brain slice in the SCN (Bouskila, Y., and Dudek, F. E., Proc. Natl. Acad. Sci. USA 90:3207-3210, 1993). This electrical activity was amplified, and the number of electrical events was counted with a window discriminator (Fintronics Inc., Orange, Conn.). Data were collected and analyzed by computer, using Brainwave™ (Data Waver Technologies, Broomfield, Colo.) or Spike 2™ (Cambridge Electronic Design, Cambridge, Mass.) software. The average number of electrical events in successive 1-minute intervals was determined and plotted against the circadian time of recording. Slices were excluded if their viability was compromised on day 2 of recording.\nMelatonin was prepared as a 100 μM stock solution in 100% ethanol, which was serially diluted with ACSF medium to yield four melatonin concentrations between 0.1 and 100 nM. A stock solution of vehicle (100% ethanol) was serially diluted with ACSF medium to yield the corresponding vehicle for each melatonin concentration. Melatonin or vehicle was applied by gravity flow in the bath for 30 minutes at each concentration before switching to the next solution. […] In the mouse experiments at circadian time 4.5-6.5 where only the single highest vehicle concentration was used as a comparator, the vehicle was applied for 30 minutes prior to the application of melatonin. A programmable automatic solution switching system (AutoMate Scientific Inc., Oakland, Calif.) was employed to time solution applications.\n(§2) The maximum percent inhibition of SCN neuronal firing during each 30 minutes application of melatonin or vehicle was calculated with respect to the average multiunit firing rate during the 5 minute period prior to the first application of a series, and plotted."}, "[3]": {"system": "SCN slices from Mel1a receptor-deficient (homozygous mutant) mice (multiunit activity)", "settings": "0.1 to 100 nM, CT 9.5-11.5 and CT 4.5-6.5, relative to vehicle", "method": "as §1, with “Slices were placed in a Haas-type brain slice chamber (Haas H. L., et al., J. Neurosci. Methods 1:323-325, 1979; Medical Systems Corp.) and gauze strips placed over the slices in the vicinity of the SCN to raise the fluid level above the slices. They were continually superfused with ACSF medium warmed to 37° C. To record multiple-unit SCN electrical activity, a 76 μm-diameter, teflon-coated platinum-iridium wire electrode was lowered into the brain slice in the SCN (Bouskila, Y., and Dudek, F. E., Proc. Natl. Acad. Sci. USA 90:3207-3210, 1993).” left out, “Slices were excluded if their viability was compromised on day 2 of recording.” left out\nas §2"}, "[4]": {"system": "SCN slices from Mel1a receptor-deficient (homozygous mutant) mice (single-unit electrical activity rhythm)", "assay": "SCN single unit recordings, phase shift of electrical activity rhythm, Mel1a receptor-deficient mice", "format": "cell-based, mouse", "method": "(§3) Mice were housed in LD 12:12 for three weeks prior to experimentation. After adaptation, mice were killed by decapitation during the light phase of the LD cycle. Hypothalamic slices (500 μm) were prepared using a tissue chopper and incubated at 37° C., as previously described (Liu, C., and Gillette, M. U., J. Neurosci. 16:744-751, 1996). For most experiments, perfusion was discontinued during the 1-hour treatment with melatonin or vehicle (0.0001% ethanol in perfusion medium). For the pertussis toxin experiment, perfusion was discontinued for 6 hours, ending after the vehicle or melatonin treatment. At the end of treatment, the medium in the chamber was replaced, and perfusion was resumed with melatonin-free medium. Single units from the SCN were recorded the following day with glass microelectrodes (Liu, C., and Gillette, M. U., J. Neurosci. 16:744-751, 1996). Signals were amplified, filtered to a band width of 0.3-3 kHz, and stored (MacADIO II, GW Instruments, Somerville, Mass.). Voltage pulses exceeding preset recording threshold were detected on-line by custom software. Off-line analysis assigned a cluster of spikes of similar amplitude and width to each unit recorded (Meister, M., et al., J. Neurosci. Methods 51:95-101, 1994). Firing rate data were analyzed as previously described to determine the time-of-peak in the activity rhythm (Liu, C., and Gillette, M. U., J. Neurosci. 16:744-751, 1996)."}, "[5]": {"system": "SCN slices from wild-type mice (single-unit electrical activity rhythm)", "assay": "SCN single unit recordings, phase shift of electrical activity rhythm, wild-type mice", "format": "cell-based, mouse", "method": "as §3"}}, "data": [{"smiles": "COc1ccc2[nH]cc(CCNC(C)=O)c2c1", "note": "[melatonin]", "values": [{"measurement": "EC50", "setting": "[1]", "value": "< 0.1", "unit": "nM"}, {"measurement": "inhibition at 0.001 µM", "setting": "[2]; Mus musculus, 1 nM, at night CT 18, wild-type C57BL/6 mice, n=8", "value": "33.9 ± 3.9", "unit": "%"}, {"measurement": "EC50", "setting": "[2]; Mus musculus, 0.1-100 nM, 30 min each, CT 4.5-6.5, day 2 in culture", "value": 0.412, "unit": "nM"}, {"measurement": "Percent inhibition of SCN firing rate", "setting": "[2]; increasing melatonin 0.1-100 nM, CT 4.5-6.5 of day 2 (FIG. 4A)", "value": "over 30%"}, {"measurement": "Percent inhibition of SCN firing rate", "setting": "[2]; melatonin 0.1-100 nM, CT 9.5-11.5 of day 1, plateau (FIG. 4B)", "value": "about 13%"}, {"measurement": "Inhibition of SCN multiunit activity", "setting": "[3]", "value": "unable to significantly inhibit SCN multiunit activity"}, {"measurement": "Circadian time of the activity peak", "setting": "[4]", "value": "6.6 ± 0.1", "unit": "h"}, {"measurement": "Phase of the firing rhythm peak", "setting": "[4]", "value": "not shifted"}, {"measurement": "Phase shift (phase advance) in the electrical activity rhythm peak", "setting": "[4]; 1 nM, CT 9.5-10.5", "value": "approximately 4 hour"}, {"measurement": "Phase advance in circadian phase", "setting": "[4]; 1 nM, CT 9.5-10.5, after 5-hour static bath of normal medium, n=3", "value": "3.2 ± 0.1", "unit": "h"}, {"measurement": "Phase advance in circadian phase", "setting": "[5]; application at CT 9.5-10.5, preliminary studies of wildtype mice", "value": "approximately 4 hour"}, {"measurement": "Phase shift in the electrical activity rhythm", "setting": "[5]; application from CT 5.5-6.5", "value": "did not elicit significant phase shifts"}, {"measurement": "CT of activity peak", "setting": "[5]; application from CT 5.5-6.5, n=3", "value": "6.8 ± 0.3", "unit": "h"}]}]}
